Values of other authors in patent US20070010756A1 (priority 2005, published 2007).

Tested on: patients
Settings: in vivo

SMILES: CC(C)c1cccc(C(C)C)c1O [propofol]
- BIS value at which 50 percent of the patients had lost consciousness (95 percent confidence interval): 61 (59-62)
- Response Entropy (RE) value at which 50 percent of the patients had lost consciousness (95 percent confidence interval): 70 (68-72)
- State Entropy (SE) value at which 50 percent of the patients had lost consciousness (95 percent confidence interval): 64 (62-66)
